# Reference: patent publication US12115140B2, “Method of treating adenoid cystic carcinoma” (THE TRUSTEES OF COLUMBIA UNIVERSITY IN THE CITY OF NEW YORK, priority 2020, dated 2024)
# Experiments:
# [1] = system: human ACC primary cultures (ACCX5M1, ACCX9); assay: Cell viability / cytotoxic activity in primary cultures of ACC PDX lines; type: cell-based; conditions: for cell viability: ACCX5M1, vs DMSO control cultures, FIG. 3E; for cytotoxic activity: ACCX9 (solid histology), FIG. 3F
# Excerpt: (§1) With reference to FIGS. 3E-3F, combination treatments may be used, based on the use of inverse agonists of RAR/RXR signaling (e.g., BMS493 or AGN193109) as radio-sensitizers and/or chemo-sensitizers (i.e., agents able to increase the cytotoxic activity of radiotherapy and/or chemotherapy).
# ACCX9 primary cultures = assay: Microscope images of ACCX9 primary cultures; type: cell-based, human; conditions: 10 μM, 7 days
# Excerpt: as §1, with “FIGS. 3G, 3H and 3I are microscope images of ACCX9 primary cultures treated with DMSO, BMS493 and AGN193109, respectively. […] With” for “With”
# [2] = system: ACCX5M1 organoid cultures, ductal-like (CD49f^low, KIT^+) cells; assay: Organoid cultures of ACCX5M1 PDX line treated one week: inverse agonists versus neutral antagonist, flow cytometry; type: cell-based, human; conditions: for killing of ductal-like (CD49f^low, KIT^+) cells: ACCs cultured in vitro as three-dimensional (3D) organoids
# Description: Further, as shown in FIGS. 6A-10, the efficacies of the inverse agonists BMS493 and AGN193109 were compared against a neutral antagonist (BMS195614). For FIGS. 6A-8, organoid cultures from a patient derived xenograft line (ACCX5M1) were treated for one week with DMSO (as a control), the neutral antagonist (BMS195614, 1 μM, 10 μM) or the inverse agonists (BMS493 1 μM, BMS493 10 μM, AGN193109 10 μM). The graphs display the percentage of KIT+ cells in each culture condition. FIG. 6A is a scatter plot displaying the relative content of myoepithelial-like cells and ductal-like cells in a primary in vitro organoid culture of the ACCX5M1 patient-derived xenograft (PDX) line treated with DMSO for 7 days and analyzed by flow cytometry. FIG. 6B is a scatter plot displaying the relative content of myoepithelial-like cells and ductal-like cells in a primary in vitro organoid culture of the ACCX5M1 patient-derived xenograft (PDX) line treated with the neutral antagonist BMS195614 (1 μM) for 7 days and analyzed by flow cytometry. FIG. 6C is a scatter plot displaying the relative content of myoepithelial-like cells and ductal-like cells in a primary in vitro organoid culture of the ACCX5M1 patient-derived xenograft (PDX) line treated with the neutral antagonist BMS195614 (10 μM) for 7 days and analyzed by flow cytometry.
# FIG. 7A is a scatter plot displaying the relative content of myoepithelial-like cells and ductal-like cells in a primary in vitro organoid culture of the ACCX5M1 patient-derived xenograft (PDX) line treated with the inverse agonist BMS493 (1 μM) after one week. FIG. 7B is a scatter plot displaying the relative content of myoepithelial-like cells and ductal-like cells in a primary in vitro organoid culture of the ACCX5M1 patient-derived xenograft (PDX) line treated with the inverse agonist BMS493 (10 μM) for 7 days and analyzed by flow cytometry. FIG. 7C is a scatter plot displaying the relative content of myoepithelial-like cells and ductal-like cells in a primary in vitro organoid culture of the ACCX5M1 patient-derived xenograft (PDX) line treated with the inverse agonist AGN193109 (10 μM) for 7 days and analyzed by flow cytometry. FIG. 8 is a bar graph comparing the percentage of ductal-like (CD49f^low, KIT^+) cells after one week from each of the treatments of FIGS. 6A-7C. FIG. 9 is a bar graph comparing the percentage of ductal-like (CD49f^low, KIT^+) cells after one week from the treatments of FIGS. 6A, 6C, 7B and 7C. FIG. 10 is a bar graph comparing the percentage of EpCAM^+/DAPI^+ cells (i.e., dead epithelial cells) after one week from each of the treatments of FIGS. 6A-7C. […] It should be noted that in FIGS. 8-10, BMS195614 has been abbreviated as “BMS195” due to the available space in the Figures.
# [3] = system: CD49f^low, KIT^+ (ductal-like) and CD49f^high, KIT^neg (myoepithelial-like) cells of human ACCs; assay: Flow cytometry of short-term primary cultures from ACC PDX lines: relative content of ductal-like and myoepithelial-like cells; type: cell-based; conditions: for significance of reduction in percentage of CD49f^low, KIT^+ (ductal-like) cells: at both 1 μM and 10 μM, ACCX5M1 and SGTX6, vs NT or DMSO; for percentage of myoepithelial-like cells (CD49f^high, KIT^neg): ACCX5M1, direct agonists, vs DMSO
# Excerpt: From a histological point of view, ACCs are usually characterized by a “bi-phasic differentiation” (i.e., the malignant tissues contain two distinct cell populations, which are commonly referred to as “myoepithelial-like” and “ductal-like” cells). A combination of cell surface markers (CD49f, KIT) have been discovered which enable the differential purification and accurate quantification of the two populations using fluorescence activated cell sorting (FACS). It has further been discovered that myoepithelial-like (CD49f^high, KIT^neg) cells are associated with more aggressive biological properties as compared to ductal-like (CD49f^low, KIT^+) cells when tested for their tumorigenic capacity (i.e., their capacity to sustain the formation of a new tumor upon xeno-transplantation in immuno-deficient mice).
# FIGS. 1A-1F and 2A-2D illustrate the in vitro anti-tumor activity of BMS493 against human ACCs. FIGS. 1A and 1B show the results of a short-term primary culture from a patient-derived xenograft (PDX) line representative of human ACCs with “cribriform” histology (ACCX5M1) treated in vitro with BMS493 (10 μM) for 7 days and then analyzed by flow cytometry. FIGS. 1C and 1D show the results of a short-term primary culture from a patient-derived xenograft (PDX) line representative of human ACCs with “cribriform” histology (SGTX6) treated in vitro with BMS493 (10 μM) for 7 days and then analyzed by flow cytometry. FIGS. 1E and 1F show the results of a short-term primary culture from a patient-derived xenograft (PDX) line representative of human ACCs with “cribriform” histology (ACCX6) treated in vitro with BMS493 (10 μM) for 7 days and then analyzed by flow cytometry.
# FIGS. 3A-3I illustrate the in vitro anti-tumor activity of BMS493 and AGN193109 against human ACCs. FIGS. 3A and 3B show comparison plots of short-term primary cultures from two patient-derived xenograft (PDX) lines representative of human ACCs with “cribriform” histology (SGTX6 and ACCX5M1, respectively), which were treated in vitro for 7 days with either BMS493 or AGN193109 and then analyzed by flow cytometry.
# [4] = system: myoepithelial-like cells (CD49f^high, KIT^neg) isolated by FACS from solid tumors; assay: Sorted myoepithelial-like cells (FACS) stimulated in vitro with direct RAR agonist; type: cell-based, human; conditions: ATRA 10 μM (also printed 10 mM), 7 days
# [5] = system: CD49f^low, KIT^+ (ductal-like) and CD49f^high, KIT^neg (myoepithelial-like) cells of human ACCs; assay: Flow cytometry of short-term primary cultures from ACC PDX lines: relative content of ductal-like and myoepithelial-like cells; type: cell-based; conditions: 10 μM, 7 days; ACCX5M1; direct agonists; vs DMSO
# [6] = system: human ACCs engrafted in mice (ACCX5M1, SGTX6, ACCX9); assay: In vivo growth kinetics of ACC PDX lines engrafted subcutaneously in NSG immune-deficient mice
# Description: Three independent patient-derived xenograft (PDX) lines representative of human ACCs (ACCX5M1, SGTX6, ACCX9) were engrafted in the subcutaneous (s.c.) tissue of NOD/SCID/IL2Rγ^−/− (NS G) immune-deficient mice and left growing until they reached a size of approximately 700 mm^3. Tumor-bearing mice were then divided into two cohorts, one of which was treated with BMS493 (40 mg/kg X 3-4 days/week), while the other received only DMSO (i.e., the solvent used as a vehicle to resuspend BMS493).
# [7] = system: human ACC tumor cells (PDX lines SGTX6, ACCX6, ACCX9, ACCX11); assay: Percentage of dead tumor cells (EpCAM^+/DAPI^+) in primary cultures of ACC PDX lines by flow cytometry; type: cell-based
# Excerpt: (§2) It should be noted that in FIGS. 2A and 2B, the percentage of dead tumor cells is reported as a percentage of the human epithelial cells that incorporate DAPI (i.e. EpCAM^+/DAPI^+) and excludes any contaminant of mouse cells from the primary tissues that were used to generate the cultures (i.e. excludes cells expressing H-2K^d and/or mCd45).
# as §2, with “2C” for “2A”, “2D,” for “2B,”
# [8] = 7 days, SGTX6 and ACCX5M1, FIGS. 3A, 3B
# [9] = 10 μM, 7 days, ACCX5M1, SGTX6, ACCX6 (cribriform), vs untreated
# [10] = ACCX5M1 organoids, one week, FIG. 8
smiles,measurement,setting,value
"Cc1ccc(C2=CCC(C)(C)c3ccc(C#Cc4ccc(C(=O)O)cc4)cc32)cc1 [AGN193109, 4-[2-[5,6-Dihydro-5,5-dimethyl-8-(4-methylphenyl)-2-naphthalenyl]ethynyl]benzoic acid]",cell viability,[1],reduction in cell viability
same,cytotoxic activity,[1],clear cytotoxic activity
same,cell morphology in microscope images,ACCX9 primary cultures,widespread cell fragmentation
same,"killing of ductal-like (CD49f^low, KIT^+) cells",[2],able to selectively kill
same,"percentage of CD49f^low, KIT^+ (ductal-like) cells",[3]; [8],dramatic reduction
same,"significance of reduction in percentage of CD49f^low, KIT^+ (ductal-like) cells",[3],statistically significant
"CC1=C(/C=C/C(C)=C/C=C/C(C)=C/C(=O)O)C(C)(C)CCC1 [ATRA, all-trans retinoic acid]",differentiation of sorted myoepithelial-like cells into ductal-like cells,[4],differentiation of myoepithelial-like cells
same,"percentage of ductal-like cells (CD49f^low, KIT^+)",[5],increase
same,"percentage of myoepithelial-like cells (CD49f^high, KIT^neg)","[3]; 10 μM, 7 days",reduction
"CC1(C)CC=C(C#Cc2ccccc2)c2cc(/C=C/c3ccc(C(=O)O)cc3)ccc21 [BMS493, 4-[(1E)-2-[5,6-Dihydro-5,5-dimethyl-8-(2-phenylethynyl)-2-naphthalenyl]ethenyl]benzoic acid]",cell viability,[1],reduction in cell viability
same,cytotoxic activity,[1],clear cytotoxic activity
same,tumor growth (change in tumor volume over time),"[6]; 40 mg/kg X 3-4 days/week, ACCX5M1, SGTX6, ACCX9 s.c. in NSG mice, vs DMSO",either growth arrest or tumor shrinkage
same,activity against human ACCs engrafted in mice,[6]; dosing regimens from 10 mg/kg (once daily X 21 days) up to 40 mg/kg (4 times/week X 3 weeks),active
same,cell morphology in microscope images,ACCX9 primary cultures,widespread cell fragmentation
same,percentage of dead (DAPI^+) cells,[7]; ACCX9 and ACCX11 (solid histology),substantial increase
same,percentage of dead tumor cells (EpCAM^+/DAPI^+),"[7]; SGTX6 and ACCX6 (cribriform), vs NT, DMSO or ATRA",substantial increase
same,percentage of dead cells (EpCAM^+/DAPI^+),"[2]; ACCX5M1 organoids, one week, BMS493 10 μM, BMS195614 1 μM, 10 μM, FIG. 10",significant increase
same,"killing of ductal-like (CD49f^low, KIT^+) cells",[2],able to selectively kill
same,"percentage of CD49f^high, KIT^neg (myoepithelial-like) cells",[3]; [9],corresponding relative increase
same,"percentage of CD49f^low, KIT^+ (ductal-like) cells",[3]; [9],dramatic reduction
same,"percentage of CD49f^low, KIT^+ (ductal-like) cells",[3]; [8],dramatic reduction
same,"significance of reduction in percentage of CD49f^low, KIT^+ (ductal-like) cells",[3],statistically significant
CC1(C)CC=C(c2cnc3ccccc3c2)c2cc(C(=O)Nc3ccc(C(=O)O)cc3)ccc21 [BMS195614],"change in percentage of ductal-like (CD49f^low, KIT^+) cells on raising concentration from 1 μM to 10 μM",[2]; [10],does not translate in a significant decrease
same,"percentage of ductal-like (CD49f^low, KIT^+) cells relative to BMS493 and AGN193109",[2]; [10],remains statistically superior
same,anti-tumor effect relative to inverse agonists BMS493 and AGN193109,"[2]; at both doses, 1 μM and 10 μM",clearly systematically inferior
C=C(c1ccc(C(=O)O)cc1)c1cc2c(cc1C)C(C)(C)CCC2(C)C [bexarotene],"percentage of ductal-like cells (CD49f^low, KIT^+)",[5],increase
same,"percentage of myoepithelial-like cells (CD49f^high, KIT^neg)","[3]; 10 μM, 7 days",reduction
